# Data from publication PMC5721475, “Characterization of sulfhydryl oxidase from Aspergillus tubingensis” (BMC Biochemistry, 2017).
# Target: T1, AtSOX (secreted sulfhydryl oxidase from Aspergillus tubingensis) (Aspergillus tubingensis, UniProt Z9JMF6K8Z8)
# T1 construct: native secreted enzyme purified from culture medium; signal peptide removed; predicted N-terminus SSIPQ
# T1 sequence (Z9JMF6K8Z8 20-393): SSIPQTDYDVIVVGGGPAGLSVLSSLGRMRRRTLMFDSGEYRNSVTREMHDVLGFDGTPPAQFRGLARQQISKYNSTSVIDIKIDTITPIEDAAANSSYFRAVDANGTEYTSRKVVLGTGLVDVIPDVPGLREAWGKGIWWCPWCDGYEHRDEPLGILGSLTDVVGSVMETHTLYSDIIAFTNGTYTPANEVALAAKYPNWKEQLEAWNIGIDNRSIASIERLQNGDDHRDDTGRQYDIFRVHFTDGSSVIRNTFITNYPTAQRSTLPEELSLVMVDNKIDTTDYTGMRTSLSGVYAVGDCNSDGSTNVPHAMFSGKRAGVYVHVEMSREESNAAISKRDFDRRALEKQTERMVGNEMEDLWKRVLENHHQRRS
# Assay: UV-vis and fluorescence spectra; release of flavin by thermal denaturation
# Format: binding
# Conditions: non-covalently bound, copurified; 20 mM Tris-HCl pH 7.5, 20 °C
smiles,measurement,value
"Cc1cc2nc3c(=O)[nH]c(=O)nc-3n(C[C@H](O)[C@H](O)[C@H](O)COP(=O)(O)OP(=O)(O)OC[C@H]3O[C@@H](n4cnc5c(N)ncnc54)[C@H](O)[C@@H]3O)c2cc1C [FAD, flavin adenine dinucleotide]",UV-vis and fluorescence spectra; release of flavin by thermal denaturation,The enzyme had a non-covalently bound FAD as a cofactor
